The target in one assay is T1, human B1R receptor (Homo sapiens, UniProt P46663).
T1 construct: host or cells: CHO K1 cells (Chinese hamster ovary), stably transfected
T1 sequence (P46663 1-353): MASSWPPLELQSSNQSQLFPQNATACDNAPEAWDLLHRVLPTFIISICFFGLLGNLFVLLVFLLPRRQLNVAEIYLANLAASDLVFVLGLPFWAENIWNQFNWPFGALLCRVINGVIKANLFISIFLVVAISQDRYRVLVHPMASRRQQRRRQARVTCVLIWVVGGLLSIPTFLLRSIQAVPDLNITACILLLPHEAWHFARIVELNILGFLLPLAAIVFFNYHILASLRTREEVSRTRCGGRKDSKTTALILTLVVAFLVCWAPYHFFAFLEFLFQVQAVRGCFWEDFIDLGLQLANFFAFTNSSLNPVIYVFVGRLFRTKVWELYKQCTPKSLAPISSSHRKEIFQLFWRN
As to the kind of experiment: Functional study on the bradykinin receptor 1 (B1R), FLIPR Ca2+ assay, hB1R cells. The class given is cell-based. As to conditions: agonist Lys-Des-Arg9-bradykinin 0.5 nM, % inhibition compared with the maximum achievable inhibition; for inhibition at 10 µM: read-out: B1R Antagonism, human [10 μM] % Inhibition. In outline: (§1)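 FLIPR Ca2+ assay in recombinant CHO K1 cells (human or rat B1R), Fluo-4 dye; 10 μM compound, 10 min, then EC-level agonist per species (0.5 nM Lys-Des-Arg9-BK human / 100 nM Des-Arg9-BK rat). Output: % inhibition vs maximum.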

The target of the next assay is T2, B1R receptor of the rat (Rattus norvegicus, UniProt P97583).
T2 construct: host or cells: CHO K1 cells (Chinese hamster ovary), stably transfected
T2 sequence (P97583 1-337): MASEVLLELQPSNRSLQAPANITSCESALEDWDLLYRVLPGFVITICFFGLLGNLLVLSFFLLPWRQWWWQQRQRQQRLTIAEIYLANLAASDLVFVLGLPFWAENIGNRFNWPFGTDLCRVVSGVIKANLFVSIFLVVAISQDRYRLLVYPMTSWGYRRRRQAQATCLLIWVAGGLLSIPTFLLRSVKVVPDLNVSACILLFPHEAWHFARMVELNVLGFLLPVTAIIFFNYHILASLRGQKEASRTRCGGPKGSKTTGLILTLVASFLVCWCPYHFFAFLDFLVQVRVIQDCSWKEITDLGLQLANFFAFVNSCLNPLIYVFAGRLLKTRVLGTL
In words: Functional study on the bradykinin receptor 1 (B1R), FLIPR Ca2+ assay, rB1R cells. The format is cell-based. To be noted: agonist Des-Arg9-bradykinin 100 nM, % inhibition compared with the maximum achievable inhibition; for inhibition at 10 µM: read-out: B1R Antagonism, rat [10 μM] % Inhibition. In outline:
as §1

Where [1] appears, read: test substance 10 μM, hB1R CHO K1 cells.
[2] abbreviates: test substance 10 μM, rB1R CHO K1 cells.

Molecules are shown by their SMILES. Read-outs that look alike come from different tables or passages of the source.

Consider `O=C(COCC1CCCCN1S(=O)(=O)c1c(Cl)cccc1Cl)N1CCN(c2ccc(Cl)c(Cl)c2)CC1` (stereo not drawn) [Example 404, 1-(4-(3,4-dichlorophenyl)piperazin-1-yl)-2-((1-(2,6-dichlorophenylsulfonyl)piperidin-2-yl)methoxy)ethanone], for which the inhibition at 10 µM at human B1R receptor (CHO-K1, test substance 10 μM) was found to be 55.1%; at B1R receptor of the rat (CHO-K1, test substance 10 μM), 98.5%.

As for `CN(CCC1CCC(N(C)C)CC1)C(=O)COCC1CCc2ccccc2N1S(=O)(=O)c1ccc(Cl)c(Cl)c1` (stereo not drawn) [Example 213, 2-((1-(3,4-dichlorophenylsulfonyl)-1,2,3,4-tetrahydroquinolin-2-yl)methoxy)-N-(2-(4-(dimethylamino)cyclohexyl)ethyl)-N-methylacetamide], the inhibition at 10 µM at human B1R receptor (CHO-K1, test substance 10 μM) stood at 59.7%; on B1R receptor of the rat (CHO-K1, test substance 10 μM) it was 94.5%.

Consider `COc1cc(C)c(S(=O)(=O)N2CCCC2COCC(=O)N2CCCN(c3ncccc3C#N)CC2)c(C)c1` (stereo not drawn) [Example 531, 2-(4-(2-((1-(4-methoxy-2,6-dimethylphenylsulfonyl)pyrrolidin-2-yl)methoxy)acetyl)-1,4-diazepan-1-yl)nicotinonitrile], for which the inhibition at 10 µM at human B1R receptor (CHO-K1, test substance 10 μM) turned out to be 92.6%; at B1R receptor of the rat (CHO-K1, test substance 10 μM) it was 96.2%.

Turning to `CN(C(=O)COCC1CCCCN1S(=O)(=O)c1c(Cl)cccc1Cl)[C@H]1CCN(Cc2ccccc2)C1` (stereo partly drawn) [Example 315, N—((S)-1-benzylpyrrolidin-3-yl)-2-((1-(2,6-dichlorophenylsulfonyl)piperidin-2-yl)methoxy)-N-methylacetamide], the inhibition at 10 µM at human B1R receptor (CHO-K1, test substance 10 μM) was found to be 105%; at B1R receptor of the rat (CHO-K1, test substance 10 μM) it was 101%.

With `CN(C)CCN(Cc1ccccc1)C(=O)COCC1CCCCN1S(=O)(=O)c1c(Cl)cccc1Cl` (stereo not drawn) [Example 489, N-benzyl-2-((1-(2,6-dichlorophenylsulfonyl)piperidin-2-yl)methoxy)-N-(2-(dimethylamino)ethyl)acetamide], the inhibition at 10 µM came to 99.3% on human B1R receptor (CHO-K1, test substance 10 μM) and 100% at B1R receptor of the rat (CHO-K1, test substance 10 μM).

Turning to `O=C(COCC1CCCCN1S(=O)(=O)c1ccc(Cl)c(Cl)c1)N1CCN(c2ccccc2F)CC1` (stereo not drawn) [Example 86, 2-[1-(3,4-dichloro-phenylsulfonyl)-piperidin-2-ylmethoxy]-1-[4-(2-fluoro-phenyl)-piperazin-1-yl]-ethanone], the inhibition at 10 µM turned out to be 43.2% on human B1R receptor (CHO-K1, test substance 10 μM) and 0% on B1R receptor of the rat (CHO-K1, test substance 10 μM).

In the case of `COc1cc(C)c(S(=O)(=O)N2CCCCC2COCC(=O)N2CCC(=O)CC2)c(C)c1` (stereo not drawn) [Example 116, 1-(2-((1-(4-methoxy-2,6-dimethylphenylsulfonyl)piperidin-2-yl)methoxy)acetyl)piperidin-4-one], the inhibition at 10 µM came out at 74.2% at human B1R receptor (setting [1]) and 101% on B1R receptor of the rat (setting [2]).

As to `COc1cc(C)c(S(=O)(=O)N2CCCC2COCC(=O)N2CCC(CCN3CCCCC3)CC2)c(C)c1` (stereo not drawn) [Example 268, 2-((1-(4-methoxy-2,6-dimethylphenylsulfonyl)pyrrolidin-2-yl)methoxy)-1-(4-(2-(piperidin-1-yl)ethyl)piperidin-1-yl)ethanone], the inhibition at 10 µM on human B1R receptor (CHO-K1, test substance 10 μM) came to 104%; at B1R receptor of the rat (CHO-K1, test substance 10 μM), 102%.

Consider `CN(C)CCCN1CCN(C(=O)COCC2CCCCN2S(=O)(=O)c2ccc(Cl)c(Cl)c2)CC1` (stereo not drawn) [Example 85, 2-[1-(3,4-dichloro-phenylsulfonyl)-piperidin-2-ylmethoxy]-1-[4-(3-dimethylamino-propyl)-piperazin-1-yl]-ethanone], for which the inhibition at 10 µM at human B1R receptor (CHO-K1, test substance 10 μM) is 43.7%; on B1R receptor of the rat (CHO-K1, test substance 10 μM) it was 40.8%.

Turning to `COc1cc(C)c(S(=O)(=O)N2CCCCC2COCC(=O)N2CCC(N3CCn4ccnc4C3)CC2)c(C)c1` (stereo not drawn) [Example 144, 1-(4-(5,6-dihydroimidazo[1,2-a]pyrazin-7(8H)-yl)piperidin-1-yl)-2-((1-(4-methoxy-2,6-dimethylphenylsulfonyl)piperidin-2-yl)methoxy)ethanone], the inhibition at 10 µM on human B1R receptor (CHO-K1, test substance 10 μM) is 101%; at B1R receptor of the rat (CHO-K1, test substance 10 μM) it was 98.2%.

On to `COc1cc(C)c(S(=O)(=O)N2CCCCC2COCC(=O)NCC2CCN(Cc3ccccc3)C2)c(C)c1` (stereo not drawn) [Example 414, N-((1-benzylpyrrolidin-3-yl)methyl)-2-((1-(4-methoxy-2,6-dimethylphenylsulfonyl)piperidin-2-yl)methoxy)acetamide], for which the inhibition at 10 µM amounted to 101% on human B1R receptor (CHO-K1, test substance 10 μM) and 100% on B1R receptor of the rat (CHO-K1, test substance 10 μM).

In the case of `CN1CCN(C2CCN(C(=O)COCC3Cc4ccccc4CN3S(=O)(=O)c3ccc(Cl)cc3Cl)CC2)CC1` (stereo not drawn) [Example 233, 2-((2-(2,4-dichlorophenylsulfonyl)-1,2,3,4-tetrahydroisoquinolin-3-yl)methoxy)-1-(4-(4-methylpiperazin-1-yl)piperidin-1-yl)ethanone], the inhibition at 10 µM on human B1R receptor (CHO-K1, test substance 10 μM) stood at 102%; on B1R receptor of the rat (CHO-K1, test substance 10 μM) it was 86.7%.

As to `CN(C)c1ccc(C2CCCCCN2C(=O)COCC2CCCCN2S(=O)(=O)c2cccc3ccccc23)cc1` (stereo not drawn) [Example 63, 1-[2-(4-dimethylamino-phenyl)-azepan-1-yl]-2-[1-(naphthyl-1-sulfonyl)-piperidin-2-ylmethoxy]-ethanone], the “B1R Antagonism, human [10 μM] % Inhibition” value on human B1R receptor (setting [1]) amounted to 58.57%. Further, on B1R receptor of the rat (setting [2]), the “B1R Antagonism, rat [10 μM] % Inhibition” value is recorded as 26.41%.

Turning to `COc1cc(C)c(S(=O)(=O)N2CCCCC2COCC(=O)N(Cc2ccccc2)c2cccc(C)n2)c(C)c1` (stereo not drawn) [Example 508, N-benzyl-2-((1-(4-methoxy-2,6-dimethylphenylsulfonyl)piperidin-2-yl)methoxy)-N-(6-methylpyridin-2-yl)acetamide], the inhibition at 10 µM is 31.9% at human B1R receptor (CHO-K1, test substance 10 μM) and 103% at B1R receptor of the rat (CHO-K1, test substance 10 μM).

With `COc1cc(C)c(S(=O)(=O)N2CCCC2COCC(=O)N2CCN(CCN(C(C)C)C(C)C)CC2)c(C)c1` (stereo not drawn) [Example 270, 1-(4-(2-(diisopropylamino)ethyl)piperazin-1-yl)-2-((1-(4-methoxy-2,6-dimethylphenylsulfonyl)pyrrolidin-2-yl)methoxy)ethanone], the inhibition at 10 µM at human B1R receptor (CHO-K1, test substance 10 μM) came to 104%; at B1R receptor of the rat (CHO-K1, test substance 10 μM), 93.4%.

In the case of `O=C(COCC1CCCN1S(=O)(=O)c1ccc(Cl)c(Cl)c1)N1CCN(c2ccccc2)CC1` (stereo not drawn) [Example 89, 2-[1-(3,4-dichloro-phenylsulfonyl)-pyrrolidin-2-ylmethoxy]-1-(4-phenyl-piperazin-1-yl)-ethanone], the inhibition at 10 µM on human B1R receptor (CHO-K1, test substance 10 μM) amounted to 41.3%; on B1R receptor of the rat (CHO-K1, test substance 10 μM) it was 0%.

In the case of `COc1cc(C)c(S(=O)(=O)N2CCCCC2COCC(=O)N(C)CCN2CCCCC2)c(C)c1` (stereo not drawn) [Example 532, 2-((1-(4-methoxy-2,6-dimethylphenylsulfonyl)piperidin-2-yl)methoxy)-N-methyl-N-(2-(piperidin-1-yl)ethyl)acetamide], the inhibition at 10 µM on human B1R receptor (CHO-K1, test substance 10 μM) turned out to be 96.4%; on B1R receptor of the rat (CHO-K1, test substance 10 μM) it was 108%.

`Cc1ccc(N2CCN(C(=O)COCC3CCCN3S(=O)(=O)c3c(Cl)cccc3Cl)CC2)cc1C` (stereo not drawn) [Example 355, 2-((1-(2,6-dichlorophenylsulfonyl)pyrrolidin-2-yl)methoxy)-1-(4-(3,4-dimethylphenyl)piperazin-1-yl)ethanone]: the inhibition at 10 µM at human B1R receptor (CHO-K1, test substance 10 μM) was determined as 83.4%; on B1R receptor of the rat (CHO-K1, test substance 10 μM), 102%.

`CN1CCN(C2CCN(C(=O)COCC3CCCCN3S(=O)(=O)c3cccc4ccccc34)CC2)CC1` (stereo not drawn) [Example 230, 1-(4-(4-methylpiperazin-1-yl)piperidin-1-yl)-2-((1-(naphthen-1-ylsulfonyl)piperidin-2-yl)methoxy)ethanone]: the “B1R Antagonism, human [10 μM] % Inhibition” value on human B1R receptor (setting [1]) is listed as 95.42%. Moreover, on B1R receptor of the rat (setting [2]), the “B1R Antagonism, rat [10 μM] % Inhibition” value is given as 62.33%.

As for `COc1cc(C)c(S(=O)(=O)N2CCCCC2COCC(=O)N2CCN(c3ncnc4ccsc34)CC2)c(C)c1` (stereo not drawn) [Example 113, 2-((1-(4-methoxy-2,6-dimethylphenylsulfonyl)piperidin-2-yl)methoxy)-1-(4-(thieno[3,2-d]pyrimidin-4-yl)piperazin-1-yl)ethanone], the inhibition at 10 µM at human B1R receptor (CHO-K1, test substance 10 μM) amounted to 99.2%; on B1R receptor of the rat (CHO-K1, test substance 10 μM), 97.1%.

As to `COc1cc(C)c(S(=O)(=O)N2CCCCC2COCC(=O)N2CCN(Cc3cnc(N(C)c4ccc(F)cc4)nc3)CC2)c(C)c1` (stereo not drawn) [Example 214, 1-(4-((2-((4-fluorophenyl)(methyl)amino)pyrimidin-5-yl)methyl)piperazin-1-yl)-2-((1-(4-methoxy-2,6-dimethylphenylsulfonyl)piperidin-2-yl)methoxy)ethanone], the inhibition at 10 µM was 101% on human B1R receptor (CHO-K1, test substance 10 μM) and 102% at B1R receptor of the rat (CHO-K1, test substance 10 μM).

The inhibition is the relative decrease from the control value, in per cent.

These data come from patent publication US8435978B2, “Substituted sulfonamide compounds” (Gruenenthal GmbH, priority 2006, dated 2013).
